Test results: patent US20150141248A1, “ANTIFUNGAL COMPOSITIONS” (DSM IP ASSETS B.V., priority 2011, published 2015)

Tests used:
Botrytis cinerea [1] = assay: In vitro antifungal activity, 96-well microtiter plates; format: cell-based; settings: in vitro 25° C., natamycin 1.25 ppm
Method: The following compositions were tested: […] Subsequently, 100 μl of a Botrytis cinerea suspension prepared in PCB medium was used to inoculated each well with 2.5×10^3 spores/ml. […] The expected antifungal activity (E in %) of the active ingredient combination was calculated according to the Colby equation (Colby, 1967): […] wherein X and Y are the observed antifungal activities (in %) of the individual active ingredients X and Y, respectively.

Botrytis cinerea [2] = assay: Treatment of wounded strawberries inoculated with Botrytis cinerea (mould growth); format: in vivo; settings: 250 ppm natamycin; for Number of moulded wounds/total number of 12 wounds (title: Number of moulded strawberries): strawberries 20° C.; for Observed antifungal activity O: strawberries
Method: Twelve fresh, organic strawberries were used per treatment. Each strawberry was wounded with a 0.5 mm long cut and each wound was inoculated with 10 μl of a Botrytis cinerea suspension containing 1×10^5 of spores/ml. […] The antifungal compositions also comprised 1.00% (w/w) methylhydroxyethylcellulose (MHEC), 0.40% (w/w) xanthan gum, 0.20% (w/w) anti-foaming agent, 0.30% (w/w) citric acid, 0.39% (w/w) lactic acid and 0.11% (w/w) potassium sorbate. The pH of the composition was 4.0. A composition without natamycin or prothioconazole was used as control. The treated strawberries were incubated in a closed box in the dark at 20° C. for 3 days.
After 2 and 3 days of incubation, the mould growth on the strawberries was assessed in a twofold manner: (i) the number of moulded strawberries per total of 12 strawberries was counted; and (ii) the antifungal activity (in %) of the individual and combined active ingredients was determined by calculating the reduction in mould growth observed on the strawberries treated with the antifungal composition in comparison to the mould growth on the strawberries treated with the control composition according to the Colby method described in Example 4 (Colby, 1967).

Penicillium italicum = assay: Treatment of wounded mandarins inoculated with Penicillium italicum (mould growth); format: in vivo
Method: Ten fresh, organic mandarins were used per treatment. The peel of each mandarin was wounded once using a cork borer according to the method described by de Lapeyre de Bellaire and Dubois (1987). Subsequently, each wound was inoculated with 10 μl of a Penicillium italicum suspension containing 1×10^4 of spores/ml. […] The pH of the composition was 4.0. […]

Fusarium proliferatum [3] = assay: Treatment of wounded bananas inoculated with Fusarium proliferatum (mould growth); format: in vivo; settings: bananas 20° C.
Method: Four organic, unripe (green) bananas were used per treatment. The peel of each banana was wounded thrice using a cork borer according to the method described by de Lapeyre de Bellaire and Dubois (1987). Subsequently, each wound was inoculated with 15 μl of a Fusarium proliferatum suspension containing 1×10^5 of spores/ml. […] In addition, the antifungal compositions comprised 1.00% (w/w) methylhydroxyethylcellulose (MHEC), 0.40% (w/w) xanthan gum, 0.20% (w/w) anti-foaming agent, 0.30% (w/w) citric acid, 0.39% (w/w) lactic acid and 0.11% (w/w) potassium sorbate. The pH of the composition was 4.0. […] The treated, unripe bananas were incubated in a closed box in the dark at 20° C. and a relative air humidity of 95%, which was obtained in the presence of a saturated Na2HPO4 aqueous solution. During the first 20 days of incubation, a ripe (yellow) banana was included in the closed box to elevate the ethylene gas level and thus induce ripening of the treated, unripe bananas. […]
The expected antifungal activity (E in %) of the combined antifungal composition comprising both active ingredients was calculated according to the Colby equation (Colby, 1967): […]
wherein X and Y are the observed antifungal activities (in %) of the individual active ingredients X and Y, respectively. If the observed antifungal activity (O in %) of the combination exceeds the expected antifungal activity (E in %) of the combination and the synergy factor O/E is thus >1.0, the combined application of the active ingredients leads to a synergistic antifungal effect.

Fusarium proliferatum [4] = assay: In vitro antifungal activity, 96-well microtiter plates; format: cell-based; settings: in vitro 25° C.; 10 days; natamycin 2.5 ppm, prothioconazole 0.5 ppm or both
Method: Subsequently, 100 μl of a Botrytis cinerea suspension prepared in PCB medium was used to inoculated each well with 2.5×10^3 spores/ml.
, the in vitro antifungal activity (%) of the individual active ingredients was assessed by calculating the reduction in mould growth observed in the presence of the active ingredient in comparison to the mould growth observed in the absence of the active ingredient. The expected antifungal activity (E in %) of the active ingredient combination was calculated according to the Colby equation (Colby, 1967): […]
The experiment was conducted as described in Example 13, except for the fact that the following compositions were tested:
Furthermore, Fusarium proliferatum was used for inoculation. The antifungal activity (in %) of the individual and combined active ingredients was determined according to the method described in Example 13.

OC(Cc1ccccc1Cl)(Cn1nc[nH]c1=S)C1(Cl)CC1 (stereo not shown) [Prothioconazole, prothioconazole]
Observed antifungal activity O (Botrytis cinerea [1]; 5 days, propiconazole 0.50 ppm, prothioconazole 0.13 ppm, or natamycin 1.25 ppm with either): 0% | Observed antifungal activity O (Botrytis cinerea [1]; 10 days, prothioconazole 0.13 ppm or both): 50% | Number of moulded wounds/total number of 12 wounds (title: Number of moulded strawberries) (Botrytis cinerea [2]; 500 ppm prothioconazole or both, Day 2): 12/12 | Number of moulded wounds/total number of 12 wounds (title: Number of moulded strawberries) (Botrytis cinerea [2]; 500 ppm prothioconazole or both, Day 2, listed as prothioconazole): 12 | Number of moulded wounds/total number of 12 wounds (title: Number of moulded strawberries) (Botrytis cinerea [2]; 500 ppm prothioconazole or both, Day 3): 12/12 | Number of moulded wounds/total number of 12 wounds (title: Number of moulded strawberries) (Botrytis cinerea [2]; 500 ppm prothioconazole or both, Day 3, listed as prothioconazole): 12 | Observed antifungal activity O (Botrytis cinerea [2]; 500 ppm prothioconazole (row prints 50 ppm) or both, 3 days): 21% | Observed antifungal activity O (Botrytis cinerea [2]; 500 ppm prothioconazole or both, 2 days): 14% | Observed antifungal activity O (Penicillium italicum; 250 ppm natamycin, 150 ppm prothioconazole or both, 13 days): 86% | Observed antifungal activity O (Penicillium italicum; 250 ppm natamycin, 150 ppm prothioconazole or both, 16 days): 82% | Observed antifungal activity O (Penicillium italicum; 250 ppm natamycin, 150 ppm prothioconazole or both, 21 days): 71% | Observed antifungal activity O (Penicillium italicum; 250 ppm natamycin, 150 ppm prothioconazole or both, 26 days): 63% | Observed antifungal activity O (Penicillium italicum; 250 ppm natamycin, 150 ppm prothioconazole or both, 29 days): 40% | Observed antifungal activity O (Penicillium italicum; 250 ppm natamycin, 150 ppm prothioconazole or both, 34 days): 27% | Observed antifungal activity O (Penicillium italicum; 500 ppm natamycin, 600 ppm prothioconazole or both, 25 days): 91% | Observed antifungal activity O (Penicillium italicum; 500 ppm natamycin, 600 ppm prothioconazole or both, 28 days): 83% | Observed antifungal activity O (Penicillium italicum; 500 ppm natamycin, 600 ppm prothioconazole or both, 31 days): 71% | Observed antifungal activity O (Penicillium italicum; 500 ppm natamycin, 600 ppm prothioconazole or both, 34 days): 63% | Number of moulded wounds/total number of 12 wounds (Fusarium proliferatum [3]; 250 ppm natamycin, 100 ppm prothioconazole or both, Day 27): 11/12 | Number of moulded wounds/total number of 12 wounds (Fusarium proliferatum [3]; 250 ppm natamycin, 100 ppm prothioconazole or both, Day 27, listed as prothioconazole): 11 | Number of moulded wounds/total number of 12 wounds (Fusarium proliferatum [3]; 250 ppm natamycin, 100 ppm prothioconazole or both, Day 28 and 29): 12/12 | Number of moulded wounds/total number of 12 wounds (Fusarium proliferatum [3]; 250 ppm natamycin, 100 ppm prothioconazole or both, Day 28 and 29, listed as prothioconazole): 12 | Number of moulded wounds/total number of 12 wounds (Fusarium proliferatum [3]; 500 ppm natamycin, 250 ppm prothioconazole or both, Day 27, 28 and 29): 10/12 | Number of moulded wounds/total number of 12 wounds (Fusarium proliferatum [3]; 500 ppm natamycin, 250 ppm prothioconazole or both, Day 27, 28 and 29, listed as prothioconazole): 10 | Observed antifungal activity O (Fusarium proliferatum [4]): 50%
